Test results reported in patent US12616753B2, “HSP70 inhibitors and methods of using same” (THE WISTAR INSTITUTE, priority 2020, dated 2026).

What was measured:
mutant p53 and MRPS14 = assay: Western blot in mouse CRC cell lines; type: cell-based; conditions: 10 μM, 24 or 48 hours
Protocol: FIGS. 5A-5F show AP-4-139B is efficacious against CRC in an immunocompetent model, and causes immune cell recruitment. FIGS. 5A-5B: Mouse CRC cell lines, MC38 (FIG. 5A) and CT26 (FIG. 5B), were plated at a density of 1,000 cells per well in 96-well plates. The next day, cells were treated with the indicated inhibitors for 72 hours. Cells were then subjected to the Alamar Blue cell viability assays. Shown are representative IC50 values of an average of six technical replicates and two biological replicates. FIG. 5C: Mouse CRC cell lines MC38 and CT26 were treated with 10 μM AP-4-139B for 24 or 48 hours and immunoblotted for HSP70, p53, AKT, Cleaved Lamin A (CLA), Cleaved Caspase 3, MRPS14, and GAPDH (loading control). The doublet detected for HSP70 is seen in other murine cell lines, and may represent a degradation product or post-translational modification. FIG. 5D: 1×10^6 MC38 cells were injected subcutaneously into the right flank of 6-8 week old male C57Bl/6 mice. Once tumors reached an approximate volume of 50 mm^3, mice were separated randomly into two groups: vehicle vs. AP-4-139B. Mice were treated with 10 mg/kg AP-4-139B every 48 hours. All mice were euthanized 20 days after the start of treatment. Tumor volumes were recorded using digital calipers and using the formula v=length×width^2×0.52. *** p<0.001. n=15 mice per group.

MC38 cells = assay: Matrigel invasion assay; type: cell-based, mouse; conditions: low doses, 24 hours
Protocol: FIG. 24A: MC38 cells were subjected to invasion assays using BioCoat Matrigel transwells in the presence of the indicated concentrations of AP-4-139B. 24 hours later, cells were fixed and stained with Crystal Violet. Shown are representative images taken from 8 random fields of view per well. Scale bar=100 μm. FIG. 24B: Quantification of FIG. 24A *** p<0.001. FIG. 24C: Schematic representation of the metastasis assay. 4×10^5 MC38 cells were injected into the tail vein of 8-10 week old male C57Bl/6 mice. Mice were treated with i.p. injection of 10 mg/kg AP-4-139B every 48 hours. After 3 weeks, the lungs of mice were formalin fixed and H&E stained, and assessed for the presence of metastatic nodules. FIG. 24D: Representative images of lung metastases (black arrows) from C57Bl/6 mice injected with MC38 cells in the tail vein, followed by treatment with vehicle or AP-4-139B. Scale bar=250 μm. FIG. 24E: Quantification of FIG. 24D. n=5 mice per group. * p<0.05.
Matrigel invasion assays were carried out using 24-well Corning® BioCoat™ Matrigel Invasion Chambers with an 8.0 μm PET membrane (#354480). Transwells were first rehydrated with serum free DMEM for 2 hours at 37° C. […] Number of invaded cells per field (n=8 random fields of view per transwell) were quantified with ImageJSoftware (NIH), normalized to live cells, and expressed as mean±SEM.

[1] = tested on: MRPS14, NDUFA6, EGFR, AKT, mutant p53; assay: Western blot of HSP70 client proteins in human tumor cell lines; type: cell-based
Protocol: Proteins were identified using False Discovery Rate (FDR) values less than 10% and p values less than 0.05. FIG. 3C: Three different melanoma cell lines (WM983B, WM4265, and 1205Lu) were treated with the indicated concentrations of AP-4-139B for 24 hours. Cell lysates were subjected to Western blot analysis, and immunoblotted for NDUFA6, MRPS14, and GAPDH (loading control). FIGS. 3D-3E: HT-29 (FIG. 3D) and LS411N (FIG. 3E) CRC cell lines were treated with the indicated concentrations of PET-16 or AP-4-139B for 48 hours. Cell lysates were subjected to Western blot analysis, and immunoblotted for EGFR, MRPS14, AKT, Cleaved Lamin A (CLA), Cleaved Caspase 3 (CC3), HSP70, HSP90 and GAPDH (loading control). FIG. 3F: HT-29 cells were treated with the indicated concentration of AP-4-139B, Gamitrinib (G-TPP), or VY-3-277 (negative control) for 48 hours. Cell lysates were subjected to Western blot analysis, and immunoblotted for HSP90, AKT, p53, and MRPS14.
Cell lysates were subjected to Western blot analysis, and immunoblotted for MRPS14, NDUFA6, BAK, COXIV, and GAPDH (loading control).
Antibodies used were purchased from: p53 (Ab-6) (DO-1, Millipore Sigma), p53 (1C12) (2524S), Cleaved Caspase 3 (9661S), Cleaved Lamin A (2035S), HSP90 (4877S), EGFR (4267S), HMGB1 (6893S), HSP70 (4873S), AKT (9272S), and GAPDH (2218S) (Cell Signaling, Danvers, MA, USA), MRPS14 (ab151118) (Abcam, Cambridge, MA, USA), NDUFA6 (GTX65550) (GeneTex, Irvine, CA, USA), BAK (H-211, sc-7873; Santa Cruz Biotechnology, Inc., Dallas, TX, USA), and HSP70 (C92F3A-5) (Enzo Life Sciences, Farmingdale, NY, USA). 17-AAG (Item No. 11039) and Metformin (Item No. 13118) were purchased from Cayman Chemical (Ann Arbor, MI, USA). Gamitrinib (G-TPP, HY-102007A) was purchased from MedChemExpress (Monmouth Junction, NJ, USA). All HSP70 inhibitors used were generated and confirmed by NMR. PLX-4720 was purchased from Chemietek (Catalog No. CT-P4720; Indianapolis, IN, USA). For in vitro studies, AP-4-139B was dissolved in DMSO. […]

c1ccc(-c2cn3nc(CCCCCC[P+](c4ccccc4)(c4ccccc4)c4ccccc4)sc3n2)cc1 [AP-4-139B, Triphenyl(6-(6-phenylimidazo[2,1-b][1,3,4]thiadiazol-2-yl)hexyl)phosphonium bromide]
levels of mutant p53 and MRPS14 in MC38 cells (mutant p53 and MRPS14): decreased levels | tumor cell migration and invasion (MC38 cells): sufficient to inhibit tumor cell migration and invasion | level of HSP70/HSP90 client proteins EGFR, AKT, mutant p53 ([1]; HT-29 and LS411N, 48 hours): decreased | level of BAK and CoxIV and other mitochondrial proteins ([1]; colorectal cancer cell lines, IC50, 24 hours): unaffected | level of MRPS14 and NDUFA6 ([1]; several tumor cell lines): significantly decreased level of MRPS14 and NDUFA6
